US20240268372A1, “Methods and Compositions for Extending Organ and Tissue Preservation” (The General Hospital Corporation, priority 2021, published 2024)
Several values for one entry are separate records, joined by “and”; a condition that tells them apart may be missing. Equal entries are not always repeated.

What was measured:
[1] = test system: whole rat livers; assay: Optimized partial freezing of whole rat livers: ex vivo simulated transplantation (normothermic reperfusion with whole blood)
Method: (§1) Within this standardized protocol, we first compared GLY, EG, and PG as main permeating CPA using a freezing temperature of −10° C. and storage duration of 1 day (FIG. 37). Using PG as the CPA, we subsequently tested the effect of freezing temperature (−10° C. vs −15° C.) and storage duration (1 day vs 5 days) on liver viability after partial freezing using the same protocol (FIG. 38).
The Affinity Pixie Oxygenator is a clinical grade oxygenator that has graduated fiber bundle density technology and radial flow path that is designed to create a more uniform blood flow, enhance gas transfer, reduce pressure drops, and decrease prime volume. Moreover, it also contains a Balance® Biosurface that contains a hydrophilic polymer coating to reduce platelet adhesion and activation. This adaptation to the oxygenator is essential since recirculating whole blood during simulated transplantation may trigger coagulation and inflammatory events that are not representative of in vivo events and could skew observed outcomes.
(§2) Machine perfusion system: The perfusion system provides a continuous perfusion through the portal vein that is pressure, flow, and temperature controlled. The perfusates can be either recirculated or flushed with a single pass though the liver and perfusates can be changed without interrupting perfusion. The setup and operation of the perfusion system is described in detail elsewhere (see, e.g., ref. 15). There were two oxygenators used in this study, including the Radnoti (Cat #130144) and Affinity Pixie Oxygenator (Cat #BBP241). Due to the flexibility and low cost of the Radnoti oxygenator, it was first used for initial optimization and characterization studies, including determining the effect of permeating CPAs (GLY vs EG vs PG; FIG. 37), temperature (−10 vs −15° C., FIG. 38) storage duration (1 vs 5 days, FIG. 38), and warm ischemic injury.
Preconditioning during SNMP: Directly after procurement the livers were perfused with 250 ml of SNMP preloading solution (see Table 7 for composition of all solutions). The perfusion temperature was set at 21° C. and perfusion was initiated at 5 ml/min. […] Next, the livers were perfused for 30 additional minutes to allow for cellular uptake of 3-O-methyl-D-glucose (3-OMG).
Preloading of CPAs during HMP: The SNMP preloading solution was gradually switched to HMP preloading solution in […] increments, each with 10% decreasing and 10% increasing volumetric fractions of SNMP and HMP preloading solution, respectively. During this switch, the perfusion temperature was lowered to 4° C., and flows were adjusted to a maximum perfusion pressure of 3 mmHg. Dependent on the flowrate, the solution switch took 10-15 minutes. The HMP preloading was continued for 30 additional minutes to ensure complete equilibration of the solution throughout the peripheral liver tissue.
This was done in 10 fractions of 10 ml, each with 10% decreasing and 10% increasing volumetric fractions of HMP preloading solution and storage solution, respectively. During this switch, the perfusion temperature was maintained at 4° C., and the flowrates were lowered to ensure a maximum perfusion pressure of 3 mmHg. The final 15 ml fraction of 100% storage solution was loaded at a fixed flowrate of 0.5 ml/min.
Partial freezing: After loading of the storage solution, the liver was placed in a bag with 50 ml fresh storage solution and suspended in a pre-cooled chiller (Engel, Schwertberg, Austria). Depending on the experimental condition the chiller temperature was pre-cooled to −10° C. or −15° C. and the liver stored for […] 5 days.

[2] = test system: whole rat livers; assay: Optimized partial freezing of whole rat livers: SNMP recovery after freezing; conditions: −15° C., 5 days; at 3 h
Method: as §1
as §2, with “injury. Once the major aspects of the protocol were optimized and characterized, we used the clinical grade Affinity Pixie Oxygenator. […]” for “injury.”

[3] = −10° C., 1 day, at 2 h of simulated transplantation
[4] = clinical grade oxygenator, −15° C., 1 day
[5] = clinical grade oxygenator, −15° C., 1 day, at 2 h
[6] = clinical grade oxygenator, −15° C., 5 day
[7] = clinical grade oxygenator, −15° C., 5 day, at 2 h

## OCCO [EG, ethylene glycol]
[1]; −10° C., 1 day
  bile production during simulated transplantation: did not produce bile
  lactate clearance after first hour of simulated transplantation: not observed
  microscopic tissue structure (H&E, blinded pathologist): favorable to modest results
[1]; −10° C., 1 day, at 2 h
  oxygen uptake during simulated transplantation: 21.4 ± 5.8 µL O2/min/g
  tissue adenylate energy charge: 0.088±0.065
  weight gain during simulated transplantation: 2.50±5.26%
[1]; [3]
  AST levels: 967±330 U/L
  portal lactate concentration: 6.68 ± 1.71 mM

## CC(O)CO (stereo not shown) [PG, propylene glycol]
[2]
  weight gain during SNMP recovery after freezing: 40.00±4.32%
[1]; 30 minutes warm ischemia prior to freezing at −10° C. for 1 day, at 2 h of simulated transplantation
  lactate: 6.37 ± 1.09 mM
[1]; clinical grade oxygenator, 1 day frozen vs Clinical Oxy. Controls
  HSP70 in perfusate: increase
[1]; clinical grade oxygenator, across all groups
  TNFα levels in perfusate: no changes
[1]; clinical grade oxygenator, frozen livers versus controls
  8OHdG in perfusate: significantly lower
[1]; [4]
  maximum ALT: 722.00±155.74 U/L
  maximum AST: 958.67±278.50 U/L
  potassium level at end of simulated transplantation: 5.23 ± 0.252 mM
[1]; [5]
  bile production: 0.67 ± 0.92 µL/g
  liver weight gain during simulated transplantation: 12.00±8.66%
  vascular resistance: 0.004±0.002 mmHg*min*mL-i*g^−1
[1]; [6]
  maximum ALT: 886.67±241.80 U/L
  maximum AST: 1190.33±117.35 U/L
  potassium level at end of simulated transplantation: 5.167 ± 0.404 mM
[1]; [7]
  bile production: 2.92 ± 3.74 µL/g
  vascular resistance: 0.007±0.010 mmHg*min*mL-i*g^−1
[1]; clinical grade oxygenator, −15° C., 5 days
  tissue adenylate energy charge: 0.131±0.031
[1]; clinical grade oxygenator, −15° C., 5 days, at 2 h
  liver weight gain during simulated transplantation: 26.00±15.13%
[1]; −10° C. and −15° C., 1 day
  microscopic tissue structure: some disruption of the lobular architecture with intact portal triads and hepatocyte swelling
[1]; −10° C., 1 day
  bile production during simulated transplantation: did produce bile
  lactate clearance after first hour of simulated transplantation: cleared lactate
  microscopic tissue structure (H&E, blinded pathologist): favorable to modest results
[1]; −10° C., 1 day, at 1 h
  AST levels: 567±172 U/L
  oxygen uptake during simulated transplantation: 36.9 ± 2.34 µL O2/min/g
[1]; −10° C., 1 day, at 2 h
  oxygen uptake during simulated transplantation: 38.2 ± 3.66 µL O2/min/g
  vascular resistance during simulated transplantation: 0.019±0.011 mmHg*min*mL^−1*g^−1
  weight gain during simulated transplantation: 4.00±9.20%
[1]; [3]
  AST levels: 979±520 U/L and 979±521 U/L
  portal lactate concentration: 2.95 ± 1.73 mM
  total cumulative bile volume: 3.56 ± 4.02 µL/g
[1]; −15° C., 1 and 5 days
  lactate clearance during simulated transplantation: no lactate clearance was observed
[1]; −15° C., 1 day
  bile production during simulated transplantation: 6.11 ± 4.69 µL/g
  tissue adenylate energy charge: 0.061±0.019
[1]; −15° C., 1 day, at 1 h
  AST levels: 1283±224 U/L
  oxygen uptake during simulated transplantation: 23.5 ± 4.68 µL O2/min/g
[1]; −15° C., 1 day, at 2 h
  AST levels: 1995±530 U/L
  lactate level at end of simulated transplantation: 5.21 ± 2.67 mM
  maximum ALT: 2335±597 U/L
  maximum potassium: 5.05 ± 0.48 mM
  oxygen uptake during simulated transplantation: 24.9 ± 2.38 µL O2/min/g
  vascular resistance during simulated transplantation: 0.021±0.010 mmHg*min*mL^−1*g^−1 and 0.011±0.004 mmHg*min*mL^−1*g^−1
[1]; −15° C., 5 days
  bile production during simulated transplantation: 3.32 ± 2.43 µL/g
  microscopic tissue structure: moderate to marked loss of LSECs
  tissue adenylate energy charge: 0.062±0.029
[1]; −15° C., 5 days, at 2 h
  lactate level at end of simulated transplantation: 5.73 ± 1.29 mM
  maximum ALT: 2316±242 U/L
  maximum potassium: 4.95 ± 0.48 mM
  oxygen uptake during simulated transplantation: 25.4 ± 9.78 µL O2/min/g
  vascular resistance during simulated transplantation: 0.021±0.021 mmHg*min*mL^−1*g^−1
  weight gain during simulated transplantation: 30.25±5.56%
